One data set relates to Ash1l. Nature of the data set: Western blot of Ash1l protein expression level. Format: cell-based, mouse. The note with it: retinoic acid for 6 days. On the technique in general: Immunoblotting shows a protein as a band on a membrane.
For data set [1], the system named is mouse ES cells. Nature of the data set: RNA-seq analysis of differentiated mouse ES cells. Format: cell-based. The note with it: RNA-seq data of ref 19. As for the experimental part: RNA-seq data reported by Yin et al.[19] was analyzed to compare RNA from undifferentiated mouse ES cells to RNA from mouse ES cells differentiated under various conditions, as described in Fig. 1. Reads were filtered using Trimmomatic v0.40 and mapped to the mouse reference genome (mm9) by TopHat (version 2.0.10). Fragments were enumerated to the UCSC reference transcriptome using the hseq-count function from the HTSeq package (version 0.6.0). Genes with <5 fragments were filtered out and gene expression changes (FC > 1.5, FDR < 0.01) were analyzed using DESeq2 (v1.42.1), with undifferentiated cells as controls. Heatmaps were generated using either the ggplot2 or pheatmap packages with z-score normalization.
Supplementary Figure 1. Analysis of RNA-seq data reported by Yin et al. (ref. 19),
comparing RNA from undifferentiated mouse ES cells to RNA from mouse ES cells
differentiated under multiple conditions (see Figure 1). Gene expression changes (FC >
1.5, FDR < 0.01 ) in 4-day RA differentiated cells were identified using DESeq2, with
undifferentiated cells as controls.
after RA treatment. Related to Figure 1.
(1 picture or pasted object on this page, not shown here)

Data set [2] concerns mouse ES cells. Nature of the data set: qPCR of gene expression in mouse ES cells, RA-induced differentiation. Format: cell-based. Particulars: for HoxA9 relative expression / Neurog2 relative expression / Olig1 relative expression / Runx1 relative expression: + RA 2 days, qPCR. The procedure: J1 ESCs were cultured feeder free on 0.1% gelatin-coated plates in ESC culture medium (Dulbecco’s modified Eagle’s medium (Hi-glucose), supplemented with 15% fetal bovine serum (Corning), non-essential amino acids, L-glutamine, β-mercaptoethanol, 1% penicillin/streptomycin, sodium pyruvate and 1000 U/mL leukemia inhibitory factor (LIF) (Ebioscience, 34-8521-82). For embryoid body formation, mouse ES cells were dissociated from gelatin-coated plates and seeded on non-adherent cell culture dishes (Greiner) at a density of 1 × 10^5 cells/mL in 10 mL of differentiation medium (ESC culture medium without LIF). Media was exchanged every 48 h and cells were collected at indicated time course. For neuronal differentiation, cells were plated on gelatin-coated plates at a density of 1×10^4 cells/cm^2 in ESC culture medium. The following day, medium was exchanged to differentiation medium +1 μM retinoic acid (RA) (Sigma) to induce differentiation. Medium was exchanged every 48 h for indicated time course.
Total RNA was extracted with RNeasy Mini Kit (QIAGEN) and reverse transcribed using Superscript III Reverse Transcriptase (Life Technologies). qPCR analysis was performed using Brilliant III Ultra Fast SYBR Green QPCR Master Mix (Agilent Technologies). Gene expression data were normalized against Hprt/Gapdh and represented as fold change relative to the control. The relative expression values are shown as mean ± S.D. For ChIP-qPCR, chromatin occupancy was calculated as the ratio of the amount of immunoprecipitated DNA to that of the input sample (% input).
CRISPR/Cas9 mediated editing was performed essentially as described. The designed gRNA ([…]) was cloned into the pSpCas9(BB)-2A-GFP (PX458) plasmid (a gift from Feng Zhang) and miniprepped using standard DNA miniprep procedures (Qiagen). J1 mES cells were transfected with sgRNAs or empty vector with Lipofectamine 2000 (ThermoFisher). Transfected cells were isolated by FACS at the Mount Sinai Flow Cytometry Core facility, and a single cell was plated per well in 96-well plates. Cells were cultured for 2-3 weeks until single colonies were visible. Cells were harvested and DNA was extracted using the QuickExtract solution (Epibio). PCR was performed using the following primers: Ash1l, F:TAGAAAGTCTGCACGGGCG, R:[…], Nestin, F:[…], R:[…], HoxA9, F:[…], R: […], Pax6, F:[…], R:[…], Gata4, F: […], R: […], Sox7, F:[…], R:[…], Pou5f1, F:[…], R:CAGGGCTTTCATGTCCTGG, Brachyury, F:GAGAGCGCAGGGAAGAGC, R:[…], Nkx2-5, F:[…], R:[…].

Data set [3] concerns Meis2 enhancer and promoter sites. Kind of data set: ChIP-qPCR of Ash1l occupancy at Meis2 promoter and enhancers. Particulars: for Ash1l occupancy, Meis2 Enh 1 / Ash1l occupancy, Meis2 Enh 2 / Ash1l occupancy, Meis2 Enh 3 / Ash1l occupancy, Meis2 promoter: Ash1l ChIP, + RA. Format: cell-based, mouse. As for the experimental part: J1 ESCs were cultured feeder free on 0.1% gelatin-coated plates in ESC culture medium (Dulbecco’s modified Eagle’s medium (Hi-glucose), supplemented with 15% fetal bovine serum (Corning), non-essential amino acids, L-glutamine, β-mercaptoethanol, 1% penicillin/streptomycin, sodium pyruvate and 1000 U/mL leukemia inhibitory factor (LIF) (Ebioscience, 34-8521-82). For embryoid body formation, mouse ES cells were dissociated from gelatin-coated plates and seeded on non-adherent cell culture dishes (Greiner) at a density of 1 × 10^5 cells/mL in 10 mL of differentiation medium (ESC culture medium without LIF). Media was exchanged every 48 h and cells were collected at indicated time course. For neuronal differentiation, cells were plated on gelatin-coated plates at a density of 1×10^4 cells/cm^2 in ESC culture medium. The following day, medium was exchanged to differentiation medium +1 μM retinoic acid (RA) (Sigma) to induce differentiation. Medium was exchanged every 48 h for indicated time course. Total RNA was extracted with RNeasy Mini Kit (QIAGEN) and reverse transcribed using Superscript III Reverse Transcriptase (Life Technologies). qPCR analysis was performed using Brilliant III Ultra Fast SYBR Green QPCR Master Mix (Agilent Technologies). Gene expression data were normalized against Hprt/Gapdh and represented as fold change relative to the control. The relative expression values are shown as mean ± S.D. For ChIP-qPCR, chromatin occupancy was calculated as the ratio of the amount of immunoprecipitated DNA to that of the input sample (% input).

A further data set relates to H3K4me3-NCP. Kind of data set: Liquid HMT assay of GST-ASH1LSET-BD-PHD on H3K4me3-nucleosomes. Format: biochemical. The note with it: D2595K mutant compared to WT ASH1LSET-BD-PHD on H3K4me3-NCP; presence or absence of MRG15; 3H-SAM, 60 min at 30 °C, pH 8. As for the experimental part:
Fig. 6 Binding of ASH1LPHD to H3K4me3 inhibits enzymatic activity of ASH1L. a Overlay of ^1H,^15N HSQC spectra of ASH1LBD in the absence (black) or presence of the indicated molar ratios of ASH1LSET. b Overlay of ^1H,^15N HSQC spectra of ASH1LPHD in the absence (black) or presence (blue) of ASH1LSET. c Liquid histone methyltransferase (HMT) assays of GST-ASH1LSET-BD-PHD-BAH on recombinant nucleosomes carrying H3K4me3 or unmodified NCP. GST-ASH1LSET-BD-PHD-BAH was pre-incubated with substrate and MRG15 (or BSA) prior addition of ^3H S-adenosyl methionine. GST, control. […] Live cells were counted over a 6-day time course. […]
Recombinant ASH1L (WT and mutant) constructs, tagged at the N-terminus with GST and at the C-terminus with 6XHis, were generated and purified using Sepharose beads and Ni-NTA beads. […] Methyltransferase activity of the proteins was measured with 0.5 μCi of ^3H labeled S-adenosyl methionine (18 Ci/mmol; PerkinElmer Life Sciences). […] The reactions were captured on P81 filter paper, the free ^3H-labeled SAM was washed away, and the paper was analyzed by Liquid Scintillation.

Turning to `CC1=C(/C=C/C(C)=C/C=C/C(C)=C/C(=O)O)C(C)(C)CCC1` [RA, retinoic acid], the “Ash1l protein expression level” value in the data set with Ash1l was “highest”. The Ash1l expression upregulation in the data set on mouse ES cells [1] (4 days RA differentiation, FDR < 0.01, vs undifferentiated) came to 1.96 fold. Further, in the data set with mouse ES cells [1] (RA differentiation), the “expression of Nsd1, all Mll family genes and several Plc genes (Ezh1, Ring1, Cbx7/8)” value was “noticeably up-regulated”; the “expression of Setd2, BRD2/3/4 and Ezh2” value is listed as “down-regulated”. Moreover, in the data set on mouse ES cells [2] (WT mES cells, replicate 1), the HoxA9 relative expression is on record as 83.8652, the Neurog2 relative expression was found to be 4.681, the Olig1 relative expression turned out to be 5.04 and the Runx1 relative expression was determined as 31.4139. For the same compound, in the data set with mouse ES cells [2] (WT mES cells, replicate 2), the HoxA9 relative expression is 95.0095, the Neurog2 relative expression was 6.712, the Olig1 relative expression was 5.327 and the Runx1 relative expression worked out at 47.9458. For the same compound, in the data set with mouse ES cells [2] (WT mES cells, replicate 3), the HoxA9 relative expression is 128.89, the Neurog2 relative expression was 11.2096, the Olig1 relative expression is 5.4768 and the Runx1 relative expression was 42.0296. The “transcriptional expression of Ash1l” value in the data set with mouse ES cells [2] (qPCR time course, RA-induced differentiation) is “dramatic and time-dependent increase”. Further, the “expression of HoxA9, Runx1, Neurog2, and Olig1 in CRISPR/Cas9 edited B7 clone” value with mouse ES cells [2] (retinoic acid, two days) is “altered expression”. In addition, in the data set with mouse ES cells [2] (ΔAsh1l B7 clone, replicate 1), the HoxA9 relative expression came out at 9.646, the Neurog2 relative expression was found to be 28.3773, the Olig1 relative expression amounted to 3.982 and the Runx1 relative expression amounted to 2.976. Besides, in the data set on mouse ES cells [2] (ΔAsh1l B7 clone, replicate 2), the HoxA9 relative expression worked out at 8.282, the Neurog2 relative expression amounted to 24.5333, the Olig1 relative expression is listed as 4.037 and the Runx1 relative expression turned out to be 2.4005. Besides, in the data set on mouse ES cells [2] (ΔAsh1l B7 clone, replicate 3), the HoxA9 relative expression amounted to 11.0043, the Neurog2 relative expression was found to be 29.378, the Olig1 relative expression is on record as 4.238 and the Runx1 relative expression is given as 2.591. Also, in data set [3] (replicate 1), the “Ash1l occupancy, Meis2 Enh 1” value turned out to be 0.01897 % input; the “Ash1l occupancy, Meis2 Enh 2” value turned out to be 0.04268 % input; the “Ash1l occupancy, Meis2 Enh 3” value is 0.02225 % input; the “Ash1l occupancy, Meis2 promoter” value was determined as 0.06078 % input. In data set [3] (replicate 2), the “Ash1l occupancy, Meis2 Enh 1” value was 0.02319 % input; the “Ash1l occupancy, Meis2 Enh 2” value is 0.04358 % input; the “Ash1l occupancy, Meis2 Enh 3” value turned out to be 0.02683 % input; the “Ash1l occupancy, Meis2 promoter” value was found to be 0.06121 % input. Moreover, in data set [3] (replicate 3), the “Ash1l occupancy, Meis2 Enh 1” value is given as 0.01327 % input; the “Ash1l occupancy, Meis2 Enh 2” value came out at 0.04413 % input; the “Ash1l occupancy, Meis2 Enh 3” value turned out to be 0.02442 % input; the “Ash1l occupancy, Meis2 promoter” value is 0.05366 % input. Further, the “Ash1l recruitment to promoter and enhancer sites of Meis2” value in data set [3] (RA-induced ESC differentiation, ChIP-qPCR) was “recruited to promoter and enhancer sites”.

As to “ASH1LSET-BD-PHD D2595K mutant: D2595K mutant of ASH1LSET-BD-PHD (aa 2074-2629)”, the methyltransferase activity result in the data set with H3K4me3-NCP is listed as “increase in the methyltransferase activity”.

Values taken from article PMC11883000, “Structure-function relationship of ASH1L and histone H3K36 and H3K4 methylation” (Nature Communications, 2025).
